Assay results reported in the METLIN SMRT retention time set (Domingo-Almenara et al. 2019).

Assay: gradient 5% acetonitrile 3 min, to 50% in 2 min, to 85% in 15 min, held 3 min, 100 µL/min
Conditions: column: Zorbax Extend-C18 2.1 x 50 mm; eluents: water / acetonitrile, 0.1% formic acid
Outline: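 Retention times of pure standards were taken from adduct peaks that were selected by computer and manually inspected. Over 3 months, mixtures of ~100 molecules were run by HPLC–quadrupole time-of-flight mass spectrometry in positive and negative ionization mode. The Zorbax Extend-C18 column (2.1 × 50 mm, 1.8 μm) ran at 100 μL/min in water and acetonitrile, each containing 0.1% formic acid, with 40 μL dead volume and 900 μL dwell volume.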

SMILES	RP-LC retention time [s]
CNc1nc(N2CCNC(=O)C2)nc2ccccc12	564
O=C(Nc1ccc(Br)cc1)C1CCCN(c2ncc(-c3ccccc3)cn2)C1 (stereo not given)	1240
COc1cccc(Cn2c(=O)c3sccc3n(Cc3nc(-c4ccc(Cl)c(F)c4)no3)c2=O)c1	1180
O=C(Nc1cccc2ccc(-n3ccnc3)nc12)c1ccccc1C(F)(F)F	638
CC1=C(c2ccccc2)S(=O)(=O)N=C1N1CCCN(C(=O)NC2CCCCC2)CC1	817
Cc1cc(C)cc(Oc2nccn3c(=O)n(CC(=O)NCc4ccco4)nc23)c1	1210
Cc1cccc(NC(=O)c2cnc3c(c2)c(=O)n(C)c(=O)n3-c2ccccc2)c1	926
CCN(CC)C(=O)C1CCCN(c2ncnc3c2cnn3-c2ccccc2)C1 (stereo not given)	881
CCCn1cc(C2=CCN(S(=O)(=O)c3cccc(Cl)c3)CC2)c2cccnc21	1110
O=C(Cn1c(CO)nc2ccccc21)N1CCCC1	565
O=C(Nc1ccc(OCc2nnc(-c3ccccc3)o2)cc1)c1ccccn1	905
COc1ccc(-c2noc(C3CC(=O)N(c4cc(Cl)ccc4OC)C3)n2)cc1OC (stereo not given)	884
CCN1C(=O)C(C)(C(=O)Nc2cc(C)cc(C)c2)Oc2cccnc21 (stereo not given)	982
Brc1ccccc1-c1nn2c(-c3ccccn3)nnc2s1	836
CC(C)CCNC(=O)c1nn(-c2ccc(F)cc2)nc1CO	984
O=C(Cn1c(C(F)(F)F)nc2cc3c(cc21)OCCO3)NCc1ccc2c(c1)OCCCO2	818
Cc1cc2c(cc3n2CC(C)(C(=O)NC2CCCCC2)N(Cc2cccnc2)C3=O)o1 (stereo not given)	658
Cc1cccc(OCc2nc(-c3cccc(-c4ccn[nH]4)c3)no2)c1	999
COc1ccc(-c2c(C)noc2NC(C)=O)cc1S(=O)(=O)Nc1ccccc1	721
Cn1c(N2CCC(C(=O)N3CCN(c4ccccc4F)CC3)CC2)cc(=O)n(C)c1=O	716
Cn1nc(C(=O)N2CCOCC2)c2c1CCN(C(=O)Nc1cccc(Br)c1)C2	726
CCN1CCN(C(=O)Cc2c(C)nn(-c3nc(-c4ccc(C)cc4)cs3)c2C)CC1	730
CCOC(=O)C1CCC(CNC(=O)Nc2ccc(-c3nc(-c4ccc(C)cc4C)co3)cc2)CC1 (stereo not given)	1240

SMILES	RP-LC retention time [s]
Cc1nc(-c2csc(S(=O)(=O)N3CCC(C(=O)NC4CCCC4)CC3)c2)no1	826
Clc1ccc(-c2noc(CN3CCN(c4ccccn4)CC3)n2)cc1	679
CCOCCOC1CCN(C(=O)c2ccoc2)CC1	679
Cc1cc(C(=O)N2C[C@@H](CO)[C@H](c3nc(C4CC4)no3)C2)c(C)o1	706
CNC(=O)C1CCN(c2nc3ccc(-c4ccncc4)nc3s2)CC1	568
CCc1ccc2nc(Nc3ncc4c(n3)CCCC4=O)nc(C)c2c1	650
O=C(NCCCN1CCCC1=O)C1CCN(c2ncnc3c2oc2ccccc23)CC1	602
COc1ccc(C(=O)N2CCC3(CC2)NC(=O)c2ccc(F)cc2N3C)cc1OC	698
CCc1nc2cc(-c3noc(Cc4ccccc4Br)n3)ccc2o1	1220
COc1nc2ccccc2nc1N1CCCC(C(=O)NC2CCCCC2C)C1 (stereo not given)	1090
Cc1ccc(-c2cn3c(n2)N(C(=O)C2CCCO2)CCC3)cc1 (stereo not given)	635
CCCNC(=O)C1CCCN(c2ccc(SCC(=O)Nc3cccc(C)c3)nn2)C1 (stereo not given)	674
O=C(C1CCN(c2nc3ccc(-c4ccccc4)nc3s2)CC1)N1CCOCC1	810
O=C(c1ccc(/C=C/c2n[nH]c3ccccc23)cc1)N1CCNCC1	648
COc1cc(NC(=O)Cc2c(C(=O)O)c(C)cn2C)cc(OC)c1	778
COc1cccc(/C=C/c2nc(C#N)c(NCCN(C)C)o2)c1	654
CCCC(=O)N1CCCn2nc(-c3cccnc3)cc2C1	577
O=C1CC(c2ccccc2)N1 (stereo not given)	646
Cc1ccc(S(=O)(=O)Nc2cc(-c3cn4cccc(C)c4n3)ccc2C)cc1C	729
CN1C(=O)c2cc(S(=O)(=O)Nc3ccc(F)cc3Cl)ccc2Oc2cccnc21	943
O=C1CN(S(=O)(=O)c2ccc(F)c(Cl)c2)CC2(CCOCC2)N1CC1CC1	881
Cc1ccc(-n2ncc3c(=O)n(Cc4nc(-c5ccccc5)no4)cnc32)cc1	1080
Cc1cc(C)n(-c2ccc(C(=O)NC3CCCC3)cn2)n1	885

SMILES	RP-LC retention time [s]
COCC(=O)Nc1ccc2nc(N3CCN(CC(=O)N4CCCCC4)CC3)cc(C(=O)O)c2c1	558
CCOc1ccccc1NC(=O)CSc1ncnc2c1nnn2-c1ccc(OC)cc1	1030
Cc1nn(C(C)C(=O)NCCCN2CCCCC2)c(=O)c2c(-n3cccc3)n(-c3ccccc3)nc12 (stereo not given)	700
O=C(c1csc(-c2ccnc(N3CCOCC3)c2)n1)N1CCCCCC1	689
Cc1nnc2n1CCN(C(=O)c1nn(C)c3ccccc13)C2	605
CCCN(CCC)C1CCc2cccc(OC)c2C1 (stereo not given)	762
Cc1ccc2c(=O)c3c([nH]c2c1C)CCN(CC(=O)Nc1ccccc1Cl)C3	640
CCCCS(=O)(=O)NCC#CCN1CCc2ccccc2C1	564
Cc1ccc(-c2cc3c(=O)n(Cc4noc(CN5CCC(C)CC5)n4)ccn3n2)cc1C	742
COCCN1C(=O)[C@H]2CN(Cc3ccc(Cl)c(F)c3)C[C@H]2C1=O	638
Cc1ccccc1CNC(=O)CN1CCN(Cc2cccc(Cl)c2)C1=O	880
COc1ccc(CN2C(=O)COC[C@H]2C(=O)NCC2CC2)c(OC)c1	696
O=C(Nc1ccc2c(c1)OCCO2)C1CCN(c2cc(N3CCCC3)ncn2)CC1	630
CN1C(=O)C(C)(C(=O)NCc2ccccc2Cl)Oc2cccnc21 (stereo not given)	795
O=C(NC1CC1)c1cn(-c2ncccc2-c2nc(-c3ccccc3)no2)cn1	762
Cc1noc([C@]23CN(CCc4ccccc4)CC[C@H]2CN(CCc2ccccc2)C3)n1	573
O=S(=O)(c1cccc(Cl)c1)N1CCN(c2cnn3c(C4CC4)nnc3c2)CC1	756
COc1ccc(OC)c(N2C=C(C#N)S(=O)(=O)c3ccc(C)cc32)c1	925
O=C(CCCn1c(=O)c2cccn2c2ccc(F)cc21)NCc1cccs1	837
O=C(NCc1ccc(F)cc1Cl)C1CCN(c2cc(Oc3ccccc3)ncn2)CC1	863
CCC1(O)CCC12CCN(C(=O)c1ccsc1)CC2 (stereo not given)	716
CCOc1ccc(-c2noc(Cc3nnc(-c4cccc(F)c4)o3)n2)cc1	1090
Cc1cccc(NC(=O)C2CCCN(S(=O)(=O)c3cn(C(C)C)cn3)C2)c1 (stereo not given)	803

SMILES	RP-LC retention time [s]
COC(=O)c1nnc2c(-c3ccccc3OC)c(C)nn2c1C	869
O=C(c1nc(-c2ccnc(N3CCCCC3)c2)no1)N1CCC2(CC1)OCCO2	673
Cc1cc(C)c(C(=O)N2CCC(CC(=O)NC3CCCCCC3)CC2)[nH]1	800
COc1ccc(CC(=O)Nc2cc3c(cc2SC(C)C)n(C)c(=O)n3C)cc1	923
O=C(CN1CCN(C(=O)Nc2ccc(Br)cc2)CC1=O)NC1CCCCC1	735
N#Cc1ccccc1CN1C[C@@H](CO)[C@H](c2nc(C3CC3)no2)C1	607
CCOc1cc(=O)n2c(c1C(=O)Nc1ccc3c(c1)CCC3)CCCC2	815
Cc1ccccc1NC(=O)Cn1c(=O)n(-c2ccccc2)c(=O)c2c1cc(C)n2C	806
COc1ccc2nc3cc(Cl)ccc3c(C#N)c2c1	1260
Cc1cc(C)n2nc(SCC(=O)NC(C)C)nc2n1	613
Cc1cccc(Nc2nc(C(=O)NCCc3ccco3)nc3ccccc23)c1	808
O=C(C1CCN(c2ccc(Sc3ccccc3)nn2)CC1)N1CCOCC1	647
O=C(CN1C(=O)C2CCCCN2c2ccc(S(=O)(=O)N3CCCC3)cc21)NCc1ccccc1 (stereo not given)	921
COc1ccc(F)cc1S(=O)(=O)N1C[C@@H]2C[C@H]1C[C@@H]2NC(=O)c1cccs1	834
COc1ccc(NC(=O)Cn2c(=O)c(CCC(=O)NC3CCCCC3)nc3ccccc32)c(OC)c1	839
CC1=C(c2ccc(C)cc2)S(=O)(=O)N=C1N1CCC(NC(=O)C2CCC2)CC1	805
Cc1ccc(-n2ncc3c(C)nn(CC(=O)Nc4cc(C)on4)c(=O)c32)c(C)c1	775
Cc1ccc(NC(=O)C2CCN(S(C)(=O)=O)c3cc(Cl)ccc3O2)cc1C (stereo not given)	1090
CCN1C(=O)c2cccnc2Sc2cc(CNC(=O)c3cccc4[nH]ccc34)ccc21	721
COc1ccc(C)cc1NC(=O)N1CCC(c2cc(N)on2)CC1	720
CCOC(=O)Cc1csc(NC(=O)C2CC(=O)N(c3n[nH]c4cccc(F)c34)C2)n1 (stereo not given)	699
